According to PMC8029583 (ACS chemical biology, 2020):
Where a SMILES comes first, the peptide text is derived from it.

Key:
[1] = molecular target: T1, ComR receptor (Streptococcus mutans serotype c, UniProt Q8DWI6); assay: β-galactosidase reporter inhibition; assay type: cell-based; settings: SMCOM2 in CDM; primary antagonism screening (Figure S-3)
[2] = molecular target: T1, ComR receptor; assay: β-galactosidase reporter activation; assay type: cell-based

CC(C)C[C@H](NC(=O)[C@H](CO)NC(=O)[C@H](Cc1c[nH]c2ccccc12)NC(=O)[C@H](C)NC(=O)[C@H](CC(=O)O)NC(=O)[C@H](CC(C)C)NC(=O)CN)C(=O)O [XIP-W4A (P5), GLDAWSL] (H-GLDAWSL-OH)
inhibition of ComR activation [1]: ~ 90%

CC(C)C[C@H](NC(=O)[C@H](C)NC(=O)[C@H](Cc1c[nH]c2ccccc12)NC(=O)[C@H](Cc1c[nH]c2ccccc12)NC(=O)[C@H](C)NC(=O)[C@H](CC(C)C)NC(=O)[C@H](C)N)C(=O)O [XIP-G1AD3AS6A (P30), ALAWWAL] (H-ALAWWAL-OH)
comX activation (partial agonist) ([2]; SMCOM2 in CDM, from dose response curve): ~ 30%

GLD [XIP-Des-W4W5S6L7 (P43)]
activity / agonism against ComR (in words) ([2]; SMCOM2 reporter in CDM): inactive

GLdWWSL [XIP-d3 (P10)]
activation ([2]; SMCOM2 in CDM, at 100 μM concentration): ~ 45%

CC(C)C[C@H](NC(=O)CN)C(=O)N[C@@H](CC(=O)O)C(=O)N[C@@H](Cc1c[nH]c2ccccc12)C(=O)N[C@@H](Cc1c[nH]c2ccccc12)C(=O)N[C@@H](CO)C(=O)N[C@@H](C)C(=O)O [XIP-L7A (P8), GLDWWSA] (H-GLDWWSA-OH)
inhibition of ComR activation [1]: ~ 80%
